Reference: patent US9969715B2, “Compounds useful for treating cancer” (ABIVAX, priority 2012, dated 2018)

What was measured:
[1] = system: MDA-MB231-luc-D3H2LN cells; assay: Invasion of MDA-MB231-D3H2LN cells into collagen (example 15 = procedure 2, 48 h drug pre-incubation); assay type: cell-based; conditions: concentration giving 50% of the anti-invasive effect of 10 μM Y-27632; 48 h pre-incubation, 24 h with 5% FBS; read-out: MDA: Inhib. of invasion: 0.5 × eff. of 10 μM Y-27632 at (μM) av
Experimental: Effect of Drug Compounds on Invasion of MDA-MB231-D3H2LN Cells into Collagen
Preparation of cells at the bottom of a collagen gel: Cells are suspended in a liquid collagen solution (4° C.), distributed into BSA-coated wells, and then collected at the bottom of the wells by centrifugation. The collagen is then solidified by incubation at 37° C. The BSA coating improves the adhesion of the collagen gel.
Pre-treatment with the compounds to be tested: Concentrated drug solutions are then added on top of the collagen, and cells are pre-incubated for 48 h with the drugs at low serum conditions (0.025% FBS).
Stimulation of invasion: Medium with 5% FBS is then added in order to stimulate invasion of the cells into the collagen gel.
(§1) Viability assay, fixation and staining: Following another 24 h incubation, an MTS assay is performed directly on the cells in the collagen. Then, cells are fixed and nuclei are stained.
Analysis: Finally, plates are analyzed using an automated microscope. Fluorescent beads that have been included into the BSA coating serve to detect the bottom of the wells. Pictures of the stained nuclei are taken at the same level (0 μm) as well as 25 μm and 50 μm above.
Negative control: No drug (just DMSO at equivalent concentration). Positive control: 10 μM Y-27632. To avoid edge effects, cells are added only to the 60 central wells B2-G11; lines A and H receive only collagen without cells (blank for the MTS assay) columns 1 and 12 remain free. Each drug is tested at least in triplicate. The positive and negative controls should be tested in several triplicates at different positions on each plate. Typical plate map (−=negative control, +=positive control, 1-12=12 different test conditions, i. e. different drug compounds or concentrations):
Preparation of 4× concentrated drug solutions in MEM+0.1% FBS+2% Lutrol E-400+0.8% DMSO: Mix each 620 μl MEM+0.1% FBS+2% Lutrol E-400 with each 4 μl DMSO+each 1 μl of the 50 mM compound stock solutions (yielding […] and 0.8% DMSO). If the desired final compound concentration is <5 μM, then further dilute in MEM+0.1% FBS+0.8% DMSO. Negative control: MEM+0.1% FBS+2% Lutrol E-400+0.8% DMSO without any drug. Preparation of the positive control: Mix 4.5 ml MEM+0.1% FBS+2% Lutrol E-400+[…] with 36 μl 5 mM Y-27632 (freshly thawed aliquot) (yielding 40 μM).
add each 33 μl/well of the 4× concentrated drug solutions in MEM+0.1% FBS+2% Lutrol E-400+0.8% DMSO to the corresponding wells (yields 1× concentrated drugs in MEM+0.025% FBS+0.5% Lutrol E-400+0.2% DMSO final)
incubate 48 h at 37° C./5% CO2
incubate 24 h at 37° C./5% CO2
for each well, calculate the mean invasion distance of the counted cells: (25 μm×number of cells at 25 μm+50 μm×number cells at 50 μm)/sum of cells at 0, 25 and 50 μm
invalidate any replicate with a CV≥50% (compound to be re-tested, or assay to be repeated if CV≥50% for the untreated negative control or the compound Y-27632-treated positive control). Y27632 is a selective inhibitor of the Rho-associated protein kinase p160ROCK of the following formula
validate the assay only if the mean invasion distance of the cells treated with 10 μM Y-27632 (positive control) is decreased by ≥40% as compared to the untreated negative control
(§2) Final analysis: Determine the concentration at which a given compound has 50% of the anti-invasive effect of the positive control (10 μM Y-27632). Determine the toxicity (=loss of viability) of the compound under these conditions.
Here, invasion (into collagen) is the concentration of the compound necessary to reach 50% of the inhibition effect compared to 10 μM Y-27632.
Standard operating procedure 2 is exactly the same as the procedure as described in example 15.

[2] = system: MDA-MB231-luc-D3H2LN cells; assay: Toxicity assay under normal cell culture conditions (MTS), MDA cells; assay type: cell-based, human; conditions: MDA-MB231-luc-D3H2LN cells, MEM+10% FBS, 72 h incubation, MTS
Experimental: (§3) In order to detect possible toxic effects, all compounds are tested in parallel in a viability assay. The viability assay is performed in parallel on serum-starved cells (as in the invasion assay) vs. cells under normal culture conditions (10% FBS).
(§4) Toxicity Assays (Under Normal Cell Culture Conditions):
(§5) Compounds were prepared as for the invasion assay, and then added to either MDA-MB231-luc-D3H2LN cells (2000/well) under normal culture conditions (MEM+10% FBS), or human PBMC (75000/well, in RPMI+10% FBS+IL-2) in standard 96-well tissue culture plates. After 72 h incubation, a standard MTS assay was performed according to the manufacturer's instructions (Promega Ref. G3581). Compounds were tested at various concentrations (concentration-response curves) in order to determine the concentrations at which 50% toxicity is obtained.

[3] = system: human PBMC; assay: Toxicity assay under normal cell culture conditions (MTS), PBMC; assay type: cell-based; conditions: human PBMC, RPMI+10% FBS+IL-2, 72 h incubation, MTS
Experimental: as §4, §5

[4] = system: MDA-MB231-luc-D3H2LN cells; assay: Viability (MTS) assay on the cells in collagen under invasion assay conditions; assay type: cell-based, human; conditions: loss of viability at the concentration giving 0.5 × effect of 10 μM Y-27632, invasion assay conditions
Experimental: as §1, §3
Viability Assay: MTS Assay:
add each 33 μl/well of the MTS reagent, incubate 3-4 h at 37° C./5% CO2
read absorbance at 490 nm (proportional to the viability)
calculate the background-corrected signals by subtracting the means of the background signals in absence of cells from the corresponding signals in presence of cells
normalize the background-corrected signals with respect to the mean signal of the negative controls (no drug) (viabilities are thus expressed in “% of control”)
as §2

SMILES | IC50 [1] | MDA tox: 50% tox. at (μM) av [2] | PBMC tox.: 50% tox. at (μM) av [3] | (+ MDA tox. under these cond.) % tox [4]
O=C(Nc1ccncc1)c1cccc(Nc2cccc(S(=O)(=O)NCCN3CCCCC3)c2)c1 [Compound 10, 3-((3-(N-(2-(piperidin-1-yl)ethyl)sulfamoyl)phenyl)amino)-N-(pyridin-4-yl)benzamide] | 0.53 µM | 45 µM | 29 µM | <10%
O=C(Nc1ccncn1)c1cccc(Nc2cccc(S(=O)(=O)NCCCN3CCCCC3)c2)c1 [Compound 27, 3-((3-(N-(3-(piperidin-1-yl)propyl)sulfamoyl)phenyl)amino)-N-(pyrimidin-4-yl)benzamide] | 2.8 µM | 66 µM | 61 µM | <10%
O=C(NCCCN1CCCC1)c1cccc(Nc2cccc(C(=O)Nc3ccncn3)c2)c1 [Compound 28, N-(pyrimidin-4-yl)-3-((3-((3-(pyrrolidin-1-yl)propyl)carbamoyl)phenyl)amino)benzamide] | 0.26 µM | 35 µM | 49 µM | <10%
CCN(CC)CCCNS(=O)(=O)c1cccc(Nc2cc(C(=O)Nc3ccncc3)ccn2)c1 [Compound 46, 2-((3-(N-(3-(diethylamino)propyl)sulfamoyl)phenyl)amino)-N-(pyridin-4-yl)isonicotinamide] | 7.5 µM | >100 µM | >100 µM | 
CN1CCN(CCCNC(=O)c2cccc(Nc3cccc(C(=O)Nc4ccncn4)c3)c2)CC1 [Compound 31, N-(3-(4-methylpiperazin-1-yl)propyl)-3-((3-(pyrimidin-4-ylcarbamoyl)phenyl)amino)benzamide] | 0.1 µM | 95 µM | 92 µM | <10%
CCN(CC)CCCNC(=O)c1ccnc(Nc2cccc(C(=O)Nc3ccncc3)c2)c1 [Compound 33, N-(3-(diethylamino)propyl)-2-((3-(pyridin-4-ylcarbamoyl)phenyl)amino) isonicotinamide] | 2.13 µM | 118 µM | 130 µM | <10%
O=C(NCCCN1CCOCC1)c1cccc(Nc2ccc(C(=O)Nc3ccncc3)cc2)c1 [Compound 14, N-(3-morpholinopropyl)-3-((4-(pyridin-4-ylcarbamoyl)phenyl)amino)benzamide] | > 2.5 µM | 70 µM | 20 µM | 
CCN(CC)CCCNC(=O)c1cccc(Nc2cccc(C(=O)N(C)c3ccncc3)c2)n1 [Compound 37, N-(3-(diethylamino)propyl)-6-((3-(methyl(pyridin-4-yl)carbamoyl)phenyl)amino)picolinamide] | 3.75 µM | >>100 μM | >>100 μM | <10%
O=C(Nc1ccncc1)c1ccc(Nc2cccc(S(=O)(=O)NCCN3CCCC3)c2)cc1 [Compound 16, N-(pyridin-4-yl)-4-((3-(N-(2-(pyrrolidin-1-yl)ethyl)sulfamoyl)phenyl)amino)benzamide] | ≥ 4.6 µM | 78 µM | 10 µM | 
CCN(CC)CCCNC(=O)c1cccc(Nc2ccc(C(=O)Nc3ccncc3)cc2)c1 [Compound 13, N-(3-(diethylamino)propyl)-3-((4-(pyridin-4-ylcarbamoyl)phenyl)amino)benzamide] | > 5 µM | 93 µM | 34 µM | 
CN1CCN(C(=O)c2cccc(Nc3cccc(C(=O)Nc4ccncc4)c3)c2)CC1 [Compound 8, 3-((3-(4-methylpiperazine-1-carbonyl)phenyl)amino)-N-(pyridin-4-yl)benzamide] | 7.5 µM | >>100 μM |  | 
CCN(CC)CCCNC(=O)c1ccc(Nc2cccc(C(=O)Nc3ccncc3)c2)cc1 [Compound 2, 3-((4-((3-(diethylamino)propyl)carbamoyl)phenyl)amino)-N-(pyridin-4-yl)benzamide] | > 5 µM | 103 µM | 156 µM | 
CCN(CC)CCCNS(=O)(=O)c1cccc(Nc2cccc(C(=O)N(C)c3ccncc3)c2)c1 [Compound 19, 3-((3-(N-(3-(diethylamino)propyl)sulfamoyl)phenyl)amino)-N-methyl-N-(pyridin-4-yl)benzamide] | > 5 µM | >100 µM | >100 µM | 
CN(C(=O)c1cccc(Nc2cccc(S(=O)(=O)NCCCN3CCOCC3)c2)c1)c1ccncc1 [Compound 23, N-methyl-3-((3-(N-(3-morpholinopropyl)sulfamoyl)phenyl)amino)-N-(pyridin-4-yl)benzamide] | > 5 µM | >100 µM | >70 µM | 
CCN(CC)CCCNC(=O)c1cccc(Nc2ccc(C(=O)Nc3ccncc3)cc2)n1 [Compound 36, N-(3-(diethylamino)propyl)-6-((4-(pyridin-4-ylcarbamoyl)phenyl)amino)picolinamide] | > 5 µM | >>100 μM | 58 µM | 
